Legend:
Type in all cases: in vivo
Spodoptera frugiperda = Spodoptera frugiperda spray test; details: application rate 100 g/ha; caterpillars; after 7 days
Summary of the method: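 Maize leaf discs were sprayed with compound formulated in solvent plus water containing 1000 ppm emulsifier, dried, then infested with Spodoptera frugiperda caterpillars. Efficacy in % mortality was scored after 7 days (100% all killed, 0% none).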

Ctenocephalides felis [1] = assay: Ctenocephalides felis oral test; details: application rate 100 ppm in citrated cattle blood; after 2 days
Summary of the method: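 Oral exposure of unfed adult fleas, roughly 20 per chamber, to compound-spiked citrated cattle blood taken up across a parafilm membrane. Read-out is percent kill at 2 days, where 100% means every flea dead.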

Myzus persicae = Myzus persicae spray test; details: application rate 100 g/ha; after 6 days
Protocol: Myzus persicae—Spray Test
To produce an appropriate active ingredient formulation, 1 part by weight of active ingredient is dissolved using the specified parts by weight of solvent and made up with water containing an emulsifier concentration of 1000 ppm until the desired concentration is attained. To produce further test concentrations, the preparation is diluted with emulsifier-containing water.
Discs of Chinese cabbage leaves (Brassica pekinensis) infested by all stages of the green peach aphid (Myzus persicae) are sprayed with an active ingredient formulation of the desired concentration.
After 6 days, efficacy in % is determined. 100% means that all the aphids have been killed; 0% means that none of the aphids have been killed.

Musca domestica = Musca domestica test; details: application rate 100 ppm; adult houseflies; after 2 days
Summary of the method: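 Feeding exposure: adult Musca domestica, 10 per vessel, given a sponge with sugar solution and test formulation at the desired concentration; % mortality determined on day 2.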

Rhipicephalus sanguineus = Rhipicephalus sanguineus in vitro contact test with adult brown dog ticks; details: application rate 5 μg/cm^2 (500 g/ha); after 48 h; ticks dead or moribund
Summary of the method: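 Test tubes (25 ml) were coated by dissolving active ingredient in acetone p.a., diluting to the required concentration, and spreading 250 μl over the inner walls and base on an orbital shaker at 30 rpm for 2 h. Once dry, 5-10 adult Rhipicephalus sanguineus were added, and tubes were capped with perforated lids and kept horizontal in darkness at room temperature. At 48 h, ticks were knocked down and heated at 45-50° C. for up to 5 min. Those unable to climb away were counted dead or moribund, and efficacy ran from 0% to 100%.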

Lucilia cuprina = Lucilia cuprina test; details: application rate 100 ppm; L1 larvae; after 2 days
Summary of the method: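 About 20 L1 larvae placed in vessels with minced horsemeat treated with compound (DMSO concentrate diluted in water) at the desired concentration. Kill (%) scored after 2 days; 100% means all larvae dead, 0% none.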

[2] = test system: Boophilus microplus Parkhurst strain, SP-resistant; assay: Boophilus microplus dip test; details: application rate 100 ppm, assessed after 7 days
Protocol: Boophilus microplus—Dip Test
Test animals: cattle ticks (Boophilus microplus) Parkhurst strain, SP-resistant
(§1) Solvent: dimethyl sulphoxide
10 mg of active ingredient are dissolved in 0.5 ml of dimethyl sulphoxide. For the purpose of producing a suitable formulation, the active ingredient solution is diluted with water to the concentration desired in each case.
This active ingredient formulation is pipetted into tubes. 8-10 adult engorged female cattle ticks (Boophilus microplus) are transferred into a further tube with holes. The tube is immersed into the active ingredient formulation, and all the ticks are completely wetted. After the liquid has run out, the ticks are transferred on filter discs into plastic dishes and stored in a climate-controlled room.
Efficacy is assessed after 7 days by laying of fertile eggs. Eggs which are not visibly fertile are stored in a climate-controlled cabinet until the larvae hatch after about 42 days. An efficacy of 100% means that none of the ticks has laid any fertile eggs; 0% means that all the eggs are fertile.

Tetranychus urticae = Tetranychus urticae spray test, OP-resistant; details: application rate 100 g/ha; after 6 days
Summary of the method: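 Bean leaf discs (Phaseolus vulgaris) carrying all stages of OP-resistant mites are sprayed with compound formulated in solvent and emulsifier-containing water. Efficacy (% mites killed) is scored after 6 days.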

Ctenocephalides felis [3] = assay: Ctenocephalides felis in vitro contact test with adult cat fleas; details: application rate 5 μg/cm^2 (500 g/ha); after 48 h; fleas dead or moribund
Summary of the method: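 Test tubes were coated with 250 μl acetone solution of compound, giving 5 μg/cm^2 at 900 ppm, then dried and stocked with 5-10 adult cat fleas. After 48 h at room temperature and ambient humidity, dead or moribund fleas were counted; efficacy given as % (100% = all dead or moribund).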

Boophilus microplus = Boophilus microplus injection test; details: application rate 20 μg/animal; injection into abdomen; assessed after 7 days
Summary of the method: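 Read-out is % efficacy from fertile egg laying at 7 days: 100% means no tick laid fertile eggs, 0% means all eggs fertile. Each of 5 engorged adult females received 1 μl of DMSO test solution injected abdominally.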

Phaedon cochleariae = Phaedon cochleariae spray test; details: application rate 100 g/ha; larvae; after 7 days
Summary of the method: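 Chinese cabbage leaf discs were sprayed with the compound formulated in water containing 1000 ppm emulsifier. After drying, they were infested with mustard beetle larvae. Efficacy was scored as % larvae killed after 7 days (100% = all dead, 0% = none).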

Amblyomma hebraeum = Amblyomma hebraeum test (tick nymphs, immersion); details: application rate 100 ppm; tick nymphs immersed one minute; after 42 days
Protocol: as §1
To produce an appropriate active ingredient formulation, 10 mg of active ingredient are mixed with 0.5 ml of dimethyl sulphoxide, and the concentrate is diluted with water to the desired concentration.
Tick nymphs (Amblyomma hebraeum) are placed into perforated plastic cups and immersed in the desired concentration for one minute. The ticks are transferred on filter paper into a Petri dish and stored in a climate-controlled cabinet.
After 42 days, the kill in % is determined. 100% means that all of the ticks have been killed; 0% means that none of the ticks have been killed.

## Cn1nc(C(F)(F)C(F)(F)F)c(C(F)(F)F)c1-n1cc(-c2cccc(NC(=O)c3ccccc3)c2)cn1 [Example 1-010]
Spodoptera frugiperda
  efficacy: 100%
Ctenocephalides felis [1]
  efficacy (kill in %): 100%
Myzus persicae
  efficacy: 100%
Musca domestica
  efficacy (kill in %): 100%
Rhipicephalus sanguineus
  efficacy: 100%
Lucilia cuprina
  efficacy (kill in %): 100%
[2]
  efficacy (laying of fertile eggs): 90%
Tetranychus urticae
  efficacy: 100%
Ctenocephalides felis [3]
  efficacy: 100%
Boophilus microplus
  efficacy (laying of fertile eggs): 100%
Phaedon cochleariae
  efficacy: 100%

## Cn1nc(C(F)(F)C(F)(F)F)c(C(F)(F)F)c1-n1cc(-c2ccc(Cl)c(NC(=O)c3ccc(F)cc3)c2)cn1 [Example 1-022]
Spodoptera frugiperda
  efficacy: 100%
Ctenocephalides felis [1]
  efficacy (kill in %): 100%
Amblyomma hebraeum
  efficacy (kill in %): 100%
Rhipicephalus sanguineus
  efficacy: 100%
Lucilia cuprina
  efficacy (kill in %): 100%
[2]
  efficacy (laying of fertile eggs): 100%
Tetranychus urticae
  efficacy: 100%
Ctenocephalides felis [3]
  efficacy: 100%
Boophilus microplus
  efficacy (laying of fertile eggs): 100%
Phaedon cochleariae
  efficacy: 100%

## Cn1nc(C(F)(F)C(F)(F)F)c(C(F)(F)F)c1-n1cc(-c2ccc(Cl)c(NC(=O)c3ccncc3)c2)cn1 [Example 1-024]
Spodoptera frugiperda
  efficacy: 100%
Ctenocephalides felis [1]
  efficacy (kill in %): 100%
Amblyomma hebraeum
  efficacy (kill in %): 100%
Musca domestica
  efficacy (kill in %): 100%
Rhipicephalus sanguineus
  efficacy: 100%
Lucilia cuprina
  efficacy (kill in %): 100%
[2]
  efficacy (laying of fertile eggs): 100%
Tetranychus urticae
  efficacy: 100%
Ctenocephalides felis [3]
  efficacy: 100%
Boophilus microplus
  efficacy (laying of fertile eggs): 100%
Phaedon cochleariae
  efficacy: 100%

## Cn1nc(C(F)(F)C(F)(F)F)c(C(F)(F)F)c1-n1cc(-c2ccc(F)c(NC(=O)c3ccccc3)c2)cn1 [Example 1-026]
Spodoptera frugiperda
  efficacy: 100%
Ctenocephalides felis [1]
  efficacy (kill in %): 100%
Myzus persicae
  efficacy: 100%
Musca domestica
  efficacy (kill in %): 90%
Rhipicephalus sanguineus
  efficacy: 100%
Lucilia cuprina
  efficacy (kill in %): 100%
[2]
  efficacy (laying of fertile eggs): 100%
Tetranychus urticae
  efficacy: 100%
Ctenocephalides felis [3]
  efficacy: 100%
Boophilus microplus
  efficacy (laying of fertile eggs): 100%
Phaedon cochleariae
  efficacy: 100%

## Cn1nc(C(F)(F)C(F)(F)F)c(C(F)(F)F)c1-n1cc(-c2ccc(F)c(NC(=O)c3ccc(F)cc3)c2)cn1 [Example 1-027]
Spodoptera frugiperda
  efficacy: 100%
Ctenocephalides felis [1]
  efficacy (kill in %): 100%
Myzus persicae
  efficacy: 100%
Musca domestica
  efficacy (kill in %): 100%
Rhipicephalus sanguineus
  efficacy: 100%
Lucilia cuprina
  efficacy (kill in %): 100%
[2]
  efficacy (laying of fertile eggs): 100%
Tetranychus urticae
  efficacy: 100%
Ctenocephalides felis [3]
  efficacy: 100%
Boophilus microplus
  efficacy (laying of fertile eggs): 100%
Phaedon cochleariae
  efficacy: 100%

## Cc1ccc(-c2cnn(-c3c(C(F)(F)F)c(C(F)(F)C(F)(F)F)nn3C)c2)cc1NC(=O)c1ccc(F)cc1 [Example 1-038]
Spodoptera frugiperda
  efficacy: 100%
Ctenocephalides felis [1]
  efficacy (kill in %): 100%
Amblyomma hebraeum
  efficacy (kill in %): 100%
Rhipicephalus sanguineus
  efficacy: 100%
Lucilia cuprina
  efficacy (kill in %): 100%
[2]
  efficacy (laying of fertile eggs): 100%
Tetranychus urticae
  efficacy: 100%
Boophilus microplus
  efficacy (laying of fertile eggs): 100%
Phaedon cochleariae
  efficacy: 100%

## Cn1nc(C(F)(F)C(F)(F)F)c(C(F)(F)F)c1-n1cc(-c2ccc(F)c(NC(=O)c3ccsc3)c2)cn1 [Example 1-041]
Spodoptera frugiperda
  efficacy: 100%
Ctenocephalides felis [1]
  efficacy (kill in %): 100%
Amblyomma hebraeum
  efficacy (kill in %): 100%
Myzus persicae
  efficacy: 100%
Rhipicephalus sanguineus
  efficacy: 100%
Lucilia cuprina
  efficacy (kill in %): 100%
[2]
  efficacy (laying of fertile eggs): 100%
Tetranychus urticae
  efficacy: 100%
Ctenocephalides felis [3]
  efficacy: 100%
Boophilus microplus
  efficacy (laying of fertile eggs): 100%
Phaedon cochleariae
  efficacy: 100%

## Cn1nc(C(F)(F)C(F)(F)F)c(C(F)(F)F)c1-n1cc(-c2ccc(F)c(NC(=O)c3ccc(C#N)cc3)c2)cn1 [Example 1-088]
Spodoptera frugiperda
  efficacy: 100%
Ctenocephalides felis [1]
  efficacy (kill in %): 100%
Amblyomma hebraeum
  efficacy (kill in %): 100%
Rhipicephalus sanguineus
  efficacy: 100%
Lucilia cuprina
  efficacy (kill in %): 100%
[2]
  efficacy (laying of fertile eggs): 100%
Tetranychus urticae
  efficacy: 100%
Ctenocephalides felis [3]
  efficacy: 100%
Boophilus microplus
  efficacy (laying of fertile eggs): 100%
Phaedon cochleariae
  efficacy: 100%

## Cn1nc(C(F)(F)C(F)(F)F)c(C(F)(F)F)c1-n1cc(-c2ccc(F)c(NC(=O)c3ccnc(F)c3)c2)cn1 [Example 1-089]
Spodoptera frugiperda
  efficacy: 100%
Ctenocephalides felis [1]
  efficacy (kill in %): 100%
Myzus persicae
  efficacy: 90%
Musca domestica
  efficacy (kill in %): 100%
Rhipicephalus sanguineus
  efficacy: 100%
Lucilia cuprina
  efficacy (kill in %): 100%
[2]
  efficacy (laying of fertile eggs): 100%
Tetranychus urticae
  efficacy: 100%
Ctenocephalides felis [3]
  efficacy: 100%
Boophilus microplus
  efficacy (laying of fertile eggs): 100%
Phaedon cochleariae
  efficacy: 100%

## COc1cc(C(=O)Nc2cc(-c3cnn(-c4c(C(F)(F)F)c(C(F)(F)C(F)(F)F)nn4C)c3)ccc2F)ccc1F [Example 1-094]
Spodoptera frugiperda
  efficacy: 83%
Ctenocephalides felis [1]
  efficacy (kill in %): 100%
Musca domestica
  efficacy (kill in %): 100%
Rhipicephalus sanguineus
  efficacy: 100%
Lucilia cuprina
  efficacy (kill in %): 100%
[2]
  efficacy (laying of fertile eggs): 100%
Tetranychus urticae
  efficacy: 100%
Ctenocephalides felis [3]
  efficacy: 100%
Boophilus microplus
  efficacy (laying of fertile eggs): 100%
Phaedon cochleariae
  efficacy: 100%

## Cn1nc(C(F)(F)C(F)(F)F)c(C(F)(F)F)c1-n1cc(-c2ccc(F)c(NC(=O)c3ccc(C#N)nc3)c2)cn1 [Example 1-098]
Spodoptera frugiperda
  efficacy: 100%
Ctenocephalides felis [1]
  efficacy (kill in %): 100%
Myzus persicae
  efficacy: 100%
Rhipicephalus sanguineus
  efficacy: 80%
Lucilia cuprina
  efficacy (kill in %): 100%
[2]
  efficacy (laying of fertile eggs): 100%
Tetranychus urticae
  efficacy: 100%
Ctenocephalides felis [3]
  efficacy: 100%
Boophilus microplus
  efficacy (laying of fertile eggs): 100%
Phaedon cochleariae
  efficacy: 100%

## Cn1nc(C(F)(F)C(F)(F)F)c(C(F)(F)F)c1-n1cc(-c2ccc(F)c(NC(=O)c3ccc(Cl)nc3)c2)cn1 [Example 1-099]
Spodoptera frugiperda
  efficacy: 100%
Ctenocephalides felis [1]
  efficacy (kill in %): 100%
Myzus persicae
  efficacy: 100%
Musca domestica
  efficacy (kill in %): 100%
Rhipicephalus sanguineus
  efficacy: 100%
Lucilia cuprina
  efficacy (kill in %): 100%
[2]
  efficacy (laying of fertile eggs): 100%
Tetranychus urticae
  efficacy: 100%
Ctenocephalides felis [3]
  efficacy: 100%
Boophilus microplus
  efficacy (laying of fertile eggs): 100%
Phaedon cochleariae
  efficacy: 100%

## Cn1nc(C(F)(F)C(F)(F)F)c(C(F)(F)F)c1-n1cc(-c2ccc(F)c(NC(=O)c3ccc(F)nc3)c2)cn1 [Example 1-100]
Spodoptera frugiperda
  efficacy: 100%
Ctenocephalides felis [1]
  efficacy (kill in %): 100%
Myzus persicae
  efficacy: 100%
Musca domestica
  efficacy (kill in %): 100%
Rhipicephalus sanguineus
  efficacy: 100%
Lucilia cuprina
  efficacy (kill in %): 100%
[2]
  efficacy (laying of fertile eggs): 100%
Tetranychus urticae
  efficacy: 100%
Ctenocephalides felis [3]
  efficacy: 100%
Boophilus microplus
  efficacy (laying of fertile eggs): 100%
Phaedon cochleariae
  efficacy: 100%
